Experimental findings from US8697385B1, “Protein controlling synthesis of collagen and associated methods” (Florida State University Research Foundation, Inc., priority 2009, dated 2014) are described below.

Holding throughout (type): cell-based, human
Test [1] relates to LARP6 and nonmuscle myosin. Kind of test: Coimmunoprecipitation of nonmuscle myosin IIB with HA-tagged LARP6. The note with it: lung fibroblasts; puromycin 200 μg/ml 2 h vs cycloheximide. How it is done:
(§1) ML-7, blebbistatin, cytochalasin B, puromycin, and cycloheximide were purchased from Sigma. ML-7 was used at 40 μM, blebbistatin was used at 100 μM, and cytochalasin B was used at 20 μM. Cells were incubated with the drugs for 16 h before analysis. Puromycin (200 μg/ml) and cycloheximide (100 μg/ml) were added to the cells for 2 h. Human lung fibroblasts have been described previously.16 Scleroderma fibroblasts were purchased from the European Collection of Cell Cultures (cell line BM0070) and derived from the skin of a scleroderma patient. MEFs were derived from knock-in mice in which the 5′SL of the collagen α1(I) gene has been mutated (Parsons et al., submitted). Several independent cell isolates were used throughout the study. All cells were cultured in Dulbecco's modified Eagle's medium supplemented with 10% fetal bovine serum for up to 10 passages. Plasmid constructs and adenovirus preparation. […] [^32P]dCTP was included in the PCR step to label the products, which were resolved on sequencing gels, as described previously.^8,31,49,50 When RNA from polysomal fractions was analyzed, an equal aliquot of each fraction was used. […]
One of the roles of nonmuscle myosin filaments may be to present collagen mRNAs to ribosomes. Therefore, we assessed if the association of collagen mRNAs with nonmuscle myosin is dependent on intact polysomes. […]

In a further test the test system is nonmuscle myosin IIB. In words: Immunoprecipitation of nonmuscle myosin IIB and RT-PCR of collagen mRNAs. Conditions: lung fibroblasts; cycloheximide 100 μg/ml or puromycin 200 μg/ml, 2 h. The protocol: as §1, with “submitted).” for “submitted). Several independent cell isolates were used throughout the study. All cells were cultured in Dulbecco's modified Eagle's medium supplemented with 10% fetal bovine serum for up to 10 passages. Plasmid constructs and adenovirus preparation.”
(§2) One of the roles of nonmuscle myosin filaments may be to present collagen mRNAs to ribosomes. Therefore, we assessed if the association of collagen mRNAs with nonmuscle myosin is dependent on intact polysomes. […] We then immunoprecipitated nonmuscle myosin from lung fibroblasts treated with cycloheximide or puromycin and analyzed if this can change the pull-down of collagen mRNAs. As control, the association with vimentin was analyzed in the same samples (FIG. 9b). […]

The subject of another test is polysomes. In words: Fractionation of polysomes on sucrose gradients. Conditions: 15-45% sucrose gradient, Western blot; puromycin or ML-7 treatment. How it is done: ML-7, blebbistatin, cytochalasin B, puromycin, and cycloheximide were purchased from Sigma. ML-7 was used at 40 μM, blebbistatin was used at 100 μM, and cytochalasin B was used at 20 μM. Cells were incubated with the drugs for 16 h before analysis. Puromycin (200 μg/ml) and cycloheximide (100 μg/ml) were added to the cells for 2 h. Human lung fibroblasts have been described previously.16 Scleroderma fibroblasts were purchased from the European Collection of Cell Cultures (cell line BM0070) and derived from the skin of a scleroderma patient. MEFs were derived from knock-in mice in which the 5′SL of the collagen α1(I) gene has been mutated (Parsons et al., submitted). Several independent cell isolates were used throughout the study. All cells were cultured in Dulbecco's modified Eagle's medium supplemented with 10% fetal bovine serum for up to 10 passages. Plasmid constructs and adenovirus preparation. The HA-tagged LARP6 clone and the deletion mutants have been described previously.^16 Adenoviruses were constructed by recloning of the constructs into the pAdCMVTRACK vector, followed by recombination with the pAdEasy vector and amplification, as described previously.^48 Expression of each construct was verified by Western blot analysis. The viruses made express both the full-size test protein and the green fluorescent protein (GFP), which is encoded by an independent transcription unit.^48 Expression of GFP served as control for viral transduction. RT-PCR analysis Total cellular RNA was isolated using an RNA isolation kit (Sigma). RT-PCRs were performed with 100 ng of total RNA or using rTth reverse transcriptase (Boca Scientific, Boca Raton, Fla.). [^32P]dCTP was included in the PCR step to label the products, which were resolved on sequencing gels, as described previously.^8,31,49,50 When RNA from polysomal fractions was analyzed, an equal aliquot of each fraction was used. The number of cycles was adjusted to within the linear range of the reaction. The primers used for RT-PCR were as follows: h-collagen α1(I), 5′ primer […] (SEQ ID NO:3) and 3′ primer […] (SEQ ID NO:4); h-collagen α2(I), 5′ primer […] (SEQ ID NO:5) and 3′ primer […] (SEQ ID NO:6).
Polysomes were fractionated as described previously.^16 Sucrose fractions (0.5 ml) were collected, and total RNA was extracted by phenol/chloroform and isopropanol precipitation. Equivalent amounts of each fraction were analyzed by RT-PCR. Total proteins were extracted from sucrose fractions by trichloroacetic acid precipitation, and equivalent amounts were analyzed by Western blot analysis.
One of the roles of nonmuscle myosin filaments may be to present collagen mRNAs to ribosomes. Therefore, we assessed if the association of collagen mRNAs with nonmuscle myosin is dependent on intact polysomes. […] Only the anti-myosin antibody immunoprecipitated collagen α1(I) and α2(I) mRNAs (lane 1). We then immunoprecipitated nonmuscle myosin from lung fibroblasts treated with cycloheximide or puromycin and analyzed if this can change the pull-down of collagen mRNAs. As control, the association with vimentin was analyzed in the same samples (FIG. 9b). […] The association of collagen mRNAs with vimentin increased after the dissociation of polysomes (lanes 3 and 4). […] To assess if nonmuscle myosin copurifies with polysomes, we fractionated polysomes on sucrose gradients^16 and analyzed for the presence of nonmuscle myosin in the fractions using Western blot analysis (FIG. 9f). […]

Another test has as its system myosin IIB. In words: Western blot analysis of total nonmuscle myosin IIB level. Conditions: lung fibroblasts; puromycin 200 μg/ml 2 h vs cycloheximide-treated cells. How it is done:
as §1, with “passages.” for “passages. Plasmid constructs and adenovirus preparation.”
Protein concentration was estimated by the Bradford assay, with bovine serum albumin as standard.^51 Western blot analyses of cellular proteins were performed using 50 μg of protein. […] The medium was collected, and an aliquot was analyzed directly by Western blot analysis. […]

For the next test, the system named is vimentin. In words: Immunoprecipitation of vimentin and RT-PCR of collagen mRNAs. Conditions: lung fibroblasts; puromycin (dissociation of polysomes) vs cycloheximide. The protocol:
as §1, with “submitted).” for “submitted). Several independent cell isolates were used throughout the study. All cells were cultured in Dulbecco's modified Eagle's medium supplemented with 10% fetal bovine serum for up to 10 passages. Plasmid constructs and adenovirus preparation.”
as §2

The subject of a further test is LARP6 and vimentin. In words: Coimmunoprecipitation of vimentin with HA-tagged LARP6. Conditions: lung fibroblasts; puromycin 200 μg/ml 2 h vs cycloheximide. How it is done: as §1, with “submitted).” for “submitted). Several independent cell isolates were used throughout the study. All cells were cultured in Dulbecco's modified Eagle's medium supplemented with 10% fetal bovine serum for up to 10 passages. Plasmid constructs and adenovirus preparation.”
as §2

Structures are written as SMILES.

Take `COc1ccc(C[C@H](N)C(=O)N[C@H]2[C@@H](O)[C@H](n3cnc4c(N(C)C)ncnc43)O[C@@H]2CO)cc1` [puromycin]: the “interaction of LARP6 and nonmuscle myosin” value in test [1] is “decreased”. Besides, the “collagen α1(I) and α2(I) mRNAs pulled down with nonmuscle myosin IIB” value in the test on nonmuscle myosin IIB was “the great majority of these mRNAs were absent”. Also, the “nonmuscle myosin in polysomal fractions” value in the test on polysomes is reported as “some nonmuscle myosin was lost, mostly from fractions 1-10”. In addition, the “total level of nonmuscle myosin” value in the test with myosin IIB was “did not change”. Moreover, the “association of collagen mRNAs with vimentin” value with vimentin is “increased”. The “interaction of LARP6 with vimentin” value in the test on LARP6 and vimentin is given as “increased”.
